The text below walks through data of patent US20100068208A1, “Degranulation inhibitor” (priority 2005, published 2010).

Assay [1] concerns RBL-2H3. The assay is described as follows: Intracellular calcium increasing activity in RBL2H3 (FLIPR). The assay is classed as cell-based. Conditions: RBL2H3, 1 μM. The method, then: (§1) RBL-2H3 (hereinafter RBL2H3) was incubated in α-MEM (Invitrogen) supplemented with 10% fetal calf serum. Vector plasmid pcDNA3.1 for animal cell expression, in which the nucleotide sequence containing the initiation codon to the termination codon of human TGR12 (DNA having the nucleotide sequence represented by SEQ ID NO: 32) was incorporated, was stably expressed in RBL-2H3 to establish human TGR12-expressed RBL-2H3 cell line (hereinafter RBL2H3-TGR12). RBL2H3-TGR12 was incubated in α-MEM (Invitrogen) supplemented with 10% fetal calf serum and 200 μg/mL of Geneticin.
(§2) The intracellular calcium increasing activity was assayed as follows. RBL2H3 and RBL2H3-TGR12 were plated in a 96-well plate at a density of 40,000 cells/well and incubated overnight. The medium was then discarded and 100 μL/well of 4 μM Fluo3-AM (Dojin Kagaku)-containing assay buffer [Hank's Balanced Salt Solution (Invitrogen), 20 mM HEPES (Dojin Kagaku) and 2.5 mM Probenecid (Sigma)] was added. The mixture was allowed to stand for an hour at 37° C. Various TGR12 (Peptide Institute, Inc.) or calcium ionophore A23187 (Wako Pure Chemical) was diluted in 0.05% CHAPS-containing assay buffer. After the cells were washed with the assay buffer, fluorescence emitted with changes in intracellular calcium was measured using FLIPR (Molecular Device). A sample, 50 μL, was added at a rate of 50 μL/sec. 10 seconds after initiation of the assay. Fluorescence was measured every 1 second during the first 60 seconds and every 6 seconds during the next 120 seconds. The highest fluorescence intensity during 3 minutes was made the maximum activity under the stimulation conditions, which was taken as an average of 3 wells. The EC50 values were calculated using Graphpad PRISM 4 (Graphpad Software).
For orientation: Calcium flux is commonly read through the fluorescence of an indicator in the cells.

In assay [2] the target is T1, human TGR12 (Homo sapiens, UniProt Q96LB1).
T1 construct: expressed in transfected cells
T1 sequence (Q96LB1 1-330): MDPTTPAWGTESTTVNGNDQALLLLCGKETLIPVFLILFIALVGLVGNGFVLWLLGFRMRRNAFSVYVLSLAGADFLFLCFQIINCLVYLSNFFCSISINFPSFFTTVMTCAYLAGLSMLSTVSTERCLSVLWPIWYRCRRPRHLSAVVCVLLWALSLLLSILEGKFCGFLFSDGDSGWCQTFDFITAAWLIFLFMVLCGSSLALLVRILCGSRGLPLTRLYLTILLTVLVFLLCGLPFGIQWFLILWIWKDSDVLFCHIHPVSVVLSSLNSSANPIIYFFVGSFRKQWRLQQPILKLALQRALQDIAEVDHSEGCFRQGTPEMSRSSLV
Briefly: Intracellular calcium increasing activity in RBL2H3-TGR12 (FLIPR). The assay is classed as cell-based. The settings on record: RBL2H3-TGR12, 1 μM. The method, then:
as §1, §2

Assay [3] concerns TGR12. The format is cell-based, human. The method, then: CHO/dhfr^− cells (hereinafter CHO) were incubated in α-MEM (Invitrogen) supplemented with 10% fetal calf serum. After a termination codon in the TGR12-encoding nucleotide sequence was removed, a nucleotide sequence ligated with the nucleotide sequence encoding GFP (Wako Pure Chemical) [hereinafter briefly referred to as TGR12-GFP (DNA having the nucleotide sequence represented by SEQ ID NO: 31)] was incorporated into vector plasmid pAKKO-111H (the same vector plasmid as pAKKO1.11H described in Biochim. Biophys. Acta, 1219, 251-259 (1994)) for animal cell expression, and the vector plasmid was stably expressed to establish TGR12-GFP-expressed CHO cell line (hereinafter CHO-TGR12). CHO-TGR12 was incubated in nucleic acid-free α-MEM medium (Invitrogen) containing 10% dialyzed fetal calf serum.
CHO-TGR12 was plated in a 96-well plate at a density of 30,000 cells/well. After incubation overnight, the medium was discarded and 100 μL/well of assay buffer [Hank's Balanced Salt Solution (Invitrogen), 20 mM HEPES (Dojin Chemical Laboratory) and 2.5 mM Probenecid (Sigma)] containing 4 μM Fluo3-AM (Dojin Chemical Laboratory) was added, which was then allowed to stand for an hour at 37° C. […] After the cells were washed with assay buffer, fluorescence reflecting changes in intracellular calcium levels was assayed on FLIPR (Molecular Device). Ten seconds after initiation of the assay, 50 μL of a sample was added at a rate of 50 μL/second. Fluorescence measurement was taken every 1 second during the first 60 seconds and then every 6 seconds during the next 120 seconds; the highest fluorescence intensity over a 3 minute period was taken as the maximum activity under the stimulation condition, representing the mean value of 3 wells. The EC50 values were determined using Graphpad PRISM 4 (Graphpad Software).

Assay [4] concerns human mast cell line LAD 2. The assay is described as follows: Effect of NK1 receptor antagonists on substance P- or A23187-induced degranulation of LAD 2. The assay is classed as cell-based. The method, then: Subsequently, Tyrode's buffer containing 50 μL of NK1 antagonist GR-82334 (Sigma, Inc.) in various concentrations or L-703606 (Sigma, Inc.) was added and incubation was continued at 37° C. for 5 minutes. […] Next, 0.2 M glycine/NaCO3 (pH 10.7) was added in a volume of 0.1-fold of the reaction solution to stop the reaction. The activity was then assayed using Fusion-α (Perkin-Elmer). […] The inhibition activity by the NK1 receptor antagonist was expressed as the percentage of the β-hexosaminidase activity when the NK1 antagonist was added in various concentrations, based on the β-hexosaminidase activity when no NK1 antagonist was added.

Assay [5] deals with human mast cell line LAD 2. The assay is described as follows: TGR12 ligand-dependent degranulation of LAD 2 (β-hexosaminidase release). The assay is classed as cell-based.
Method: Human mast cell line LAD 2 was incubated in StemPro-34 medium (Invitrogen) supplemented with 100 ng/mL of stem cell factor (Immuno-Biological Laboratories Co., Ltd.). […] Subsequently, Tyrode's buffer containing 50 μL of TGR12 ligand (Peptide Institute, Inc.) in various concentrations was added and incubation was continued at 37° C. for further 20 minutes to induce degranulation. The degree of degranulation was determined by assaying the β-hexosaminidase activity in the degranulation assay supernatant as given below. The supernatant was dispensed into a 96-well plate and 0.1M citrate (pH 4.5)/1 mM 4-methyl umbelliferyl-2-acetamido-2-deoxy-beta-D-glucopyranoside (Wako Pure Chemical) in 5-fold of the supernatant was added thereto, followed by incubation at 37° C. for an hour. […] The activity was then assayed using Fusion-α (Perkin-Elmer). The β-hexosaminidase activity was also shown by the activity in the supernatant obtained by centrifugation after freezing and thawing LAD 2 four times, which was made total β-hexosaminidase activity in LAD 2, and the degree of degranulation was shown as the percentage of the β-hexosaminidase activity in the LAD 2 supernatant based on the total β-hexosaminidase activity.
Assay [6] addresses T2, TGR12-GFP (fused protein of human TGR12 and GFP, encoded by the DNA of SEQ ID NO: 31), stably expressed on … (human, UniProt Q96LB1 1-330).
T2 sequence: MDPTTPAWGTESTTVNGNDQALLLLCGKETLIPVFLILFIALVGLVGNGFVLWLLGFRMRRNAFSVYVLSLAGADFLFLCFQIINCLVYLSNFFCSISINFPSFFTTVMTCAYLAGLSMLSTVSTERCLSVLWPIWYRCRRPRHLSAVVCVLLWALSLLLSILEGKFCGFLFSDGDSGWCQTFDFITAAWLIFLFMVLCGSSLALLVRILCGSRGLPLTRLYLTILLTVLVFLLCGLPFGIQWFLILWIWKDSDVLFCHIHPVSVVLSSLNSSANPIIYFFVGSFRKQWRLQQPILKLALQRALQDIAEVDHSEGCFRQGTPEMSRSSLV
Briefly: cell-based or functional assay.

The target of assay [7] is T3, human TGR12 (untagged) (human, UniProt Q96LB1 1-330).
T3 sequence: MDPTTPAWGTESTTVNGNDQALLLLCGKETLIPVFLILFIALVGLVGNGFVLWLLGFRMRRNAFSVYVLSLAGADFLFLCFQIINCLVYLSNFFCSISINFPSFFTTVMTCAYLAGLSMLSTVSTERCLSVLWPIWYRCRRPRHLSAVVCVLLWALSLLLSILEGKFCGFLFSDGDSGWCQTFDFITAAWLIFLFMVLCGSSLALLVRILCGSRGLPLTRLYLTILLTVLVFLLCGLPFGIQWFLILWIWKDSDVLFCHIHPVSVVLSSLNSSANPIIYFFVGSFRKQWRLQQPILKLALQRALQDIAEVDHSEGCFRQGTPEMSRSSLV
Briefly: cell-based or functional assay.

Like-named read-outs stand apart in the source and are kept apart here. Where no end group is shown, it is not given here.

On to `CNc1ccc2oc(C[C@H]3O[C@@]4(CC[C@H]3C)O[C@H]([C@H](C)C(=O)c3ccc[nH]3)[C@H](C)C[C@H]4C)nc2c1C(=O)O` [A23187], for which the “maximum activity in the calcium increasing effect” value is given as 25338 in assay [1]; 25624 in assay [2]; 27379 in assay [3] (CHO-TGR12, 1 μM).
Turning to `Ic1ccccc1CN[C@@H]1C2CCN(CC2)[C@@H]1C(c1ccccc1)c1ccccc1` [L-703606], the “degranulation, % of β-hexosaminidase activity without NK1 antagonist” value in assay [4] (A23187 stimulation 0.3 μM, antagonist 100 nM) turned out to be 98.4%; in assay [4] (A23187 stimulation 0.3 μM, antagonist 300 nM) it was 97.2%; in assay [4] (A23187 stimulation 0.3 μM, antagonist 1 μM), 97.4%; in assay [4] (A23187 stimulation 0.3 μM, antagonist 3 μM) it was 91.5%; in assay [4] (A23187 stimulation 0.3 μM, antagonist 10 μM) it was 37.1%; in assay [4] (A23187 stimulation 0.3 μM, antagonist 30 μM) it was 2.4%. Besides, the “degranulation, % of β-hexosaminidase activity without NK1 antagonist” value in assay [4] (substance P stimulation 0.3 μM, antagonist 100 nM) was 101.1%; in assay [4] (substance P stimulation 0.3 μM, antagonist 300 nM), 97.9%; in assay [4] (substance P stimulation 0.3 μM, antagonist 1 μM), 98.8%; in assay [4] (substance P stimulation 0.3 μM, antagonist 3 μM), 100.0%; in assay [4] (substance P stimulation 0.3 μM, antagonist 10 μM), 39.4%; in assay [4] (substance P stimulation 0.3 μM, antagonist 30 μM), 3.2%. Further, the “inhibition of the degranulation by the substance P and A23187 stimulation” value is listed as “did not inhibit” in assay [4] (concentration range of 3 μM); “inhibited” in assay [4] (concentration range of 10 μM to 30 μM, non-specifically to TGR12 and NK1 receptor).
With `CC[C@H](C)[C@H](NC(=O)CNC(=O)[C@H](CC(=O)O)NC(=O)[C@H](CO)NC(=O)[C@@H](N)Cc1c[nH]cn1)C(=O)N[C@@H](Cc1ccccc1)C(=O)N[C@H](C(=O)N[C@@H](CC(=O)O)C(=O)N[C@@H](CO)C(=O)N[C@@H](Cc1ccc(O)cc1)C(=O)N[C@@H](CO)C(=O)N[C@@H](CCCNC(=N)N)C(=O)N[C@@H](Cc1ccc(O)cc1)C(=O)N[C@@H](CCCNC(=N)N)C(=O)N[C@@H](CCCCN)C(=O)N[C@@H](CCC(N)=O)C(=O)N[C@@H](CCSC)C(=O)N[C@@H](C)C(=O)N[C@H](C(=O)N[C@@H](CCCCN)C(=O)N[C@@H](CCCCN)C(=O)N[C@@H](Cc1ccc(O)cc1)C(=O)N[C@@H](CC(C)C)C(=O)N[C@@H](C)C(=O)N[C@@H](C)C(=O)N[C@H](C(=O)N[C@@H](CC(C)C)C(=O)NCC(=O)N[C@@H](CCCCN)C(=O)N[C@@H](CCCNC(=N)N)C(=O)N[C@@H](Cc1ccc(O)cc1)C(=O)N[C@@H](CCCCN)C(=O)N[C@@H](CCC(N)=O)C(=O)N[C@@H](CCCNC(=N)N)C(=O)N[C@H](C(=O)N[C@@H](CCCCN)C(=O)N[C@@H](CC(N)=O)C(=O)N[C@@H](CCCCN)C(N)=O)C(C)C)C(C)C)C(C)C)[C@@H](C)O` [PACAP-38], the “stimulated degranulation (β-hexosaminidase in supernatant, % of total)” value in assay [5] (LAD 2, 10 nM) turned out to be 7.4%; in assay [5] (LAD 2, 30 nM), 24.8%; in assay [5] (LAD 2, 100 nM) it was 49.4%; in assay [5] (LAD 2, 300 nM), 65.8%; in assay [5] (LAD 2, 1 μM), 68.9%; in assay [5] (LAD 2, 3 μM), 63.3%. Moreover, the EC50 in assay [5] (LAD 2, read-out: EC50 in the degranulation on LAD 2) is about 51 nM; in assay [3] (CHO-TGR12, read-out: EC50 in the calcium increasing effect on CHO-TGR12), about 161 nM. In addition, the “maximum activity in the calcium increasing effect” value in assay [3] (CHO-TGR12, 0.3 nM, highest fluorescence intensity over 3 minutes) came to 287; in assay [3] (CHO-TGR12, 3 nM), 410; in assay [3] (CHO-TGR12, 30 nM), 195; in assay [3] (CHO-TGR12, 300 nM), 23043; in assay [3] (CHO-TGR12, 3000 nM) it was 23315.
Take DRMPCRNFFWKTFSSCK (peptide, UniProt O00230 89-105, looked up, not fully specified; ends and bridges not checked) [human cortistatin-17]: in assay [6], the “maximum activity in the calcium increasing effect (FLIPR), CHO-TGR12, at 0.3 nM” value was 67 fluorescence intensity; the “maximum activity in the calcium increasing effect (FLIPR), CHO-TGR12, at 3 nM” value is 54 fluorescence intensity; the “maximum activity in the calcium increasing effect (FLIPR), CHO-TGR12, at 30 nM” value was 94 fluorescence intensity; the “maximum activity in the calcium increasing effect (FLIPR), CHO-TGR12, at 300 nM” value amounted to 17900 fluorescence intensity. In assay [6], the “maximum activity in the calcium increasing effect (FLIPR), CHO-TGR12, at 3000 nM” value worked out at 23600 fluorescence intensity. In assay [7], the “degranulation of LAD 2 (beta-hexosaminidase release, % of total) at 10 nM” value was 1.6%; the “degranulation of LAD 2 (beta-hexosaminidase release, % of total) at 30 nM” value came out at 2.8%; the “degranulation of LAD 2 (beta-hexosaminidase release, % of total) at 100 nM” value was found to be 26.5%; the “degranulation of LAD 2 (beta-hexosaminidase release, % of total) at 300 nM” value was 52.8%. Besides, in assay [7], the “degranulation of LAD 2 (beta-hexosaminidase release, % of total) at 1 µM” value amounted to 62.2%; the “degranulation of LAD 2 (beta-hexosaminidase release, % of total) at 3 µM” value stood at 58.9%; the “maximum activity in the calcium increasing effect (FLIPR), RBL2H3-TGR12, at 1 nM” value is -2 fluorescence intensity; the “maximum activity in the calcium increasing effect (FLIPR), RBL2H3-TGR12, at 10 nM” value worked out at 33 fluorescence intensity. Besides, in assay [7], the “maximum activity in the calcium increasing effect (FLIPR), RBL2H3-TGR12, at 100 nM” value came out at 1570 fluorescence intensity; the “maximum activity in the calcium increasing effect (FLIPR), RBL2H3-TGR12, at 1 µM” value came to 11200 fluorescence intensity; the “maximum activity in the calcium increasing effect (FLIPR), RBL2H3-TGR12, at 10 µM” value is 12800 fluorescence intensity.

As a reminder, the EC50 is the concentration giving half of the maximal effect.
